For 6 molecules, IC50 and Ki results are on record in ChEMBL document CHEMBL1129926, “D4 dopamine receptor-selective compounds from the Chinese plant Phoebe chekiangensis” (Bioorg Med Chem Lett, 1997).

Test [1] addresses T1, D(4) dopamine receptor (Homo sapiens, UniProt P21917).
T1 sequence (P21917 whole entry): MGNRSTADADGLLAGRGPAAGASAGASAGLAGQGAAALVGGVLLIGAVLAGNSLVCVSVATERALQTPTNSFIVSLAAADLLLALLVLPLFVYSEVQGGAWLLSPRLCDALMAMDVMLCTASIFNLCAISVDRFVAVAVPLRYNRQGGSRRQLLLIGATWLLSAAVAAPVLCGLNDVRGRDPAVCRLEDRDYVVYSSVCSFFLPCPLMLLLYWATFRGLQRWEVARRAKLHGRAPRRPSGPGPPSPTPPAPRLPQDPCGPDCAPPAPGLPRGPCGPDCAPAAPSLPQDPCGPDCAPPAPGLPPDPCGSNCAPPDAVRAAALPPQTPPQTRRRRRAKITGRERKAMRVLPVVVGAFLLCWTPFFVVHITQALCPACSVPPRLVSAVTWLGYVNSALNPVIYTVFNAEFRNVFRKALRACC
The test is described as follows: Inhibitory concentration against binding of [3H]spiperone to human D4 dopaminergic receptor.

For test [2], the target named is T1, D(4) dopamine receptor. The test is described as follows: Potency was measured by the displacement of [3H]-spiperone binding to human D4 dopaminergic receptor.
In another test the target is D(2) dopamine receptor (Homo sapiens, UniProt P14416). The experiment in a line: Inhibitory concentration against binding of [3H]spiperone to human D2 dopaminergic receptor.
Chain of D(2) dopamine receptor (P14416 whole entry): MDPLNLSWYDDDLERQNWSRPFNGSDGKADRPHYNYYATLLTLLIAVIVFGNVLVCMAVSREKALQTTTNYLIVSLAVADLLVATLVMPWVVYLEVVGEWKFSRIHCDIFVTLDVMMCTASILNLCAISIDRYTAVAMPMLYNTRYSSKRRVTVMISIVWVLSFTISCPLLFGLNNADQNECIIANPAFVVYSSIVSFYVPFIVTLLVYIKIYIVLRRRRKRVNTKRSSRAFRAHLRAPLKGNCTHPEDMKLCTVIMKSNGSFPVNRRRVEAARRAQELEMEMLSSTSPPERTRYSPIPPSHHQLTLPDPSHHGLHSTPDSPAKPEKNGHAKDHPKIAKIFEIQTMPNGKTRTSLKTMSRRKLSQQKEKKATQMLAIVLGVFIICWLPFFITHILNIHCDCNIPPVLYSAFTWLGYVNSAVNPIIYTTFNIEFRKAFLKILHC

The structures appear in SMILES notation.

As to `Oc1ccc2c(c1)CCN2`, the figures for the IC50 on D(4) dopamine receptor [1] and on D(2) dopamine receptor were 39200 nM and 1030 nM, respectively. Also, the affinity on D(4) dopamine receptor [2] corresponds to a Ki of 500 nM.
Turning to `OC[C@H]1O[C@H](Oc2ccc(CC3NCCc4cc(O)c(O)cc43)cc2)[C@H](O)[C@H](O)[C@H]1O` (some centres undefined), the IC50 at D(4) dopamine receptor [1] came to 47500 nM. The same molecule returned a Ki on D(4) dopamine receptor [2] of 1200 nM.
At D(4) dopamine receptor [2], `Oc1ccc(CC2NCCc3cc(O)c(O)cc32)cc1O` (centres undefined) showed a Ki of 2500 nM. This lies in the single-digit micromolar range.
Same read-out and setting: the result for `CN1CCc2cc(O)c(O)cc2C1Cc1ccc(O)c(O)c1` (centres undefined) reads 350 nM.
In turn, `Oc1ccc(CC2NCCc3cc(O)c(O)cc32)cc1` (centres undefined) [HIGENAMINE] yielded a Ki on D(4) dopamine receptor [2] of 3100 nM.
Still for that read-out and setting: in the case of `CC1NCCc2cc(O)c(O)cc21` (centres undefined) it was 6400 nM.
